Measured values published in PMC4864078, “De Novo Transcriptome Analysis and Detection of Antimicrobial Peptides of the American Cockroach Periplaneta americana (Linnaeus)” (PLoS ONE, 2016).
“Also recorded” adds a separate entry of the source.

What was measured:
[1] = system: Gram-negative bacteria, Gram-positive bacteria, and yeast; assay: Radial diffusion assay, statement over all three microbes; assay type: cell-based; conditions: increased in a dose-dependent manner, cleared zone after 12 h at 37°C
Description: (§1) The bacterial strains E. coli (KACC 13821, ATCC 11775) and Staphylococcus aureus (KACC 10768, ATCC 25923), and the yeast strain Candida albicans (KCTC 7121, ATCC 14053) were purchased from the Korean Agricultural Culture Collection (KACC) and Korean Collection for Type Cultures (KCTC). Both bacteria and the yeast were cultivated overnight in tryptic soy broth (TSB; Difco, USA) at 200 rpm in a 37°C shaking incubator to the stationary phase. Bacteria were cultivated for 3 h in fresh TSB medium under the same condition to the log phase. The strains were stored with 15% glycerol at −70°C until use.
(§2) The radial diffusion assay was performed to test the antimicrobial activities of peptides, as described previously with slight modifications. In brief, bacteria and yeast strains were grown to the mid-logarithmic phase in TSB at 37°C and then washed twice with 10 mM Tris-HCl (containing 5 mM glucose, pH 7.4). A total of 4 × 10^6 CFU was added to 10 mL of an underlay agarose gel [0.03% (w/v) TSB, 1% (w/v) agarose (Sigma, USA), and 0.02% (v/v) Tween 20 (Sigma, USA) in 10 mM Tris-HCl]. The underlay gel was poured into a 100-mm INTEGRID^TM Petri dish. After agarose solidification, 3-mm-diameter wells were punched and 5 μL of each peptide solution was added to each well. Buffer alone was used as a negative control. Plates were incubated at 37°C for 3 h to allow for diffusion of the peptides. The underlay gel was then covered with 10 mL of nutrient-rich agar overlay (6% TSB and 1% agarose in 10 mM Tris-HCl). […] This experiment was repeated at least 3 times and the same results were obtained.

C. albicans (ATCC 14053) = assay type: cell-based, Candida albicans; conditions: Mueller-Hinton Broth, 2 × 10^4 CFU/mL, 18 h at 37°C, visible turbidity, complete growth inhibition
Description: as §1
(§3) In addition, antimicrobial activities of the peptides were also tested by broth microdilution assays against E. coli, S. aureus, and C. albicans. Briefly, microbes were grown overnight in Mueller-Hinton Broth (MHB) to the onset of the stationary phase with shaking at 200 rpm. The cultures were diluted in fresh MHB to a final concentration of 2 × 10^4 CFU/mL. A stock solution of each peptide was prepared to a concentration of 640 μg/mL in 0.01% acetic acid, and was then serially diluted two-fold to reach a concentration of 10 μg/mL. After 90-μL aliquots of the microbial suspension were dispensed into each well of a 96-well polypropylene microtiter plate, 10 μL of the peptide solution was added. The antimicrobial activities of the peptides were assessed by measuring the visible turbidity in each well of the plate after 18 h of incubation at 37°C. Minimum inhibitory concentrations (MICs) are expressed as a specific value that caused complete growth inhibition.

S. aureus (ATCC 25923) = assay: Broth microdilution assay (MIC); assay type: cell-based, Staphylococcus aureus; conditions: Mueller-Hinton Broth, 2 × 10^4 CFU/mL, 18 h at 37°C, visible turbidity, complete growth inhibition
Description: as §1, §3

E. coli (ATCC 11775) = assay: Broth microdilution assay (MIC); assay type: cell-based, Escherichia coli; conditions: Mueller-Hinton Broth, 2 × 10^4 CFU/mL, 18 h at 37°C, visible turbidity, complete growth inhibition
Description: as §1, §3

S. aureus = assay: Radial diffusion assay; assay type: cell-based, Staphylococcus aureus; conditions: diameter of growth inhibition zone after 12 h; compared with melittin; repeated three times
Description: as §1, §2

C. albicans = assay: Radial diffusion assay; assay type: cell-based, Candida albicans; conditions: diameter of growth inhibition zone after 12 h, repeated three times
Description: as §1, §2

E. coli = assay: Radial diffusion assay; assay type: cell-based, Escherichia coli; conditions: diameter of growth inhibition zone after 12 h; compared with melittin; repeated three times
Description: as §1, §2

rat erythrocytes = assay: Hemolytic assay; assay type: cell-based; conditions: 100 μg/mL, compared to melittin, 30 min at 37°C, A540
Description: This experiment was approved by the Institutional Animal Care and Use Committee (IACUC) of the National Academy of Agricultural Sciences (approval number: NAAS-1114). The hemolytic activity of the peptides was determined by monitoring the release of hemoglobin from rat erythrocytes at 540 nm. For the hemolytic assay, 20 μL of each peptide solution at a predetermined concentration was added to 180 μL of a 2.5% (v/v) suspension of rat erythrocytes in phosphate-buffered saline (PBS). Melittin (Sigma, USA), a hemolytic and α-helical peptide isolated from bee venom, was used as the positive control. This mixture was incubated for 30 min at 37°C, and 600 μL of PBS was then added to each tube. After 3 min of centrifugation at 10,000 ×g, the supernatant was […], and the absorbance was measured at 540 nm. Evaluations were made from the results of at least three independent experiments, each carried out in triplicate.

| Sequence | Antimicrobial activity in radial diffusion assay [1] | Minimum Inhibitory Concentration (MIC) (C. albicans (ATCC 14053)) | Minimum Inhibitory Concentration (MIC) (S. aureus (ATCC 25923)) | Minimum Inhibitory Concentration (MIC) (E. coli (ATCC 11775)) | Antimicrobial activity in S. aureus (radial diffusion assay) (S. aureus) | Antimicrobial activity against C. albicans (radial diffusion assay) (C. albicans) | Antimicrobial activity in E. coli (radial diffusion assay) (E. coli) | Hemolytic activity (rat erythrocytes) | Antimicrobial activity against C. albicans (radial diffusion assay) (C. albicans; listed as Contig15_1337–1) |
| --- | --- | --- | --- | --- | --- | --- | --- | --- | --- |
| ISHNHLTAASITHVKNRGKYIYMHLKFRKTNVLI [ISGCock_Contig16_2060, synthetic peptide, AMPA stretch of a predicted novel AMP from a P. americana transcript] | antimicrobial activity | 16 µg/mL | 16 µg/mL | 16 µg/mL |  |  |  |  |  |
| MKTFLRLYRSLINKVLHV [ISGCock_Contig05_0593, synthetic peptide, AMPA stretch of a predicted novel AMP from a P. americana transcript] | antimicrobial activity | 4 µg/mL | 16 µg/mL | 4 µg/mL | greater than that of melittin; also recorded: highest antibacterial effect | strong antimicrobial activity |  |  |  |
| CNYISFFRKCKNSQSTMYGCHRMNKCVFSSY [ISGCock_Contig07_3736–1, synthetic peptide, first AMPA stretch of a predicted novel AMP from a P. americana transcript] | antimicrobial activity | >64 µg/mL | >64 µg/mL | >64 µg/mL |  |  |  |  |  |
| KRMKLNAKKLSFCDHLNSYLNLSPTLFIHNSSKQWSHWLWHNGIRI [ISGCock_Contig15_1337–2, synthetic peptide, second AMPA stretch of a predicted novel AMP from a P. americana transcript] | antimicrobial activity | 64 µg/mL | >64 µg/mL | >64 µg/mL | greater than that of melittin | strong antimicrobial activity | stronger antimicrobial activity than melittin; also recorded: highest antimicrobial activity of the tested peptides | relatively low compared to that of melittin |  |
| LMLCKGFLRHSYKSIHERGTKRGKLCRISRLALSSLP [ISGCock_Contig10_4736–2, synthetic peptide, second AMPA stretch of a predicted novel AMP from a P. americana transcript] | antimicrobial activity | 32 µg/mL | >64 µg/mL | 16 µg/mL | greater than that of melittin | strong antimicrobial activity |  |  |  |
| RKKVWFIFHVCPKLKQRILSDTHAKNKCRLSPLLIKSTKIKNET [ISGCock_Contig16_4974, synthetic peptide, AMPA stretch of a predicted novel AMP from a P. americana transcript] | antimicrobial activity | 16 µg/mL | 16 µg/mL | 16 µg/mL |  |  |  |  |  |
| KRMKLNAKKLSFCDHLNSYLNLSPTLFIHNSSKQWSHWLWHNGIRI [ISGCock_Contig15_1337–1, synthetic peptide, first AMPA stretch of a predicted novel AMP from a P. americana transcript] | antimicrobial activity | 16 µg/mL | >64 µg/mL | >64 µg/mL | greater than that of melittin | strong antimicrobial activity |  | relatively low compared to that of melittin | highest antifungal activity of the tested peptides |
| ALQICTRNMIDDRLPYVADNVRPGTFIKQQRKQKQQRHHTSGTRKRMAKG [ISGCock_Contig04_0915, synthetic peptide, AMPA stretch of a predicted novel AMP from a P. americana transcript] | antimicrobial activity | >64 µg/mL | >64 µg/mL | 64 µg/mL |  | strong antimicrobial activity | stronger antimicrobial activity than melittin |  |  |
| HLYPCKLNLKLGKVPFHFLNLNHKGKSIMVNQQTCLYYIICQTR [ISGCock_Contig13_4610–1, synthetic peptide, first AMPA stretch of a predicted novel AMP from a P. americana transcript] | antimicrobial activity | >64 µg/mL | >64 µg/mL | 64 µg/mL | greater than that of melittin | strong antimicrobial activity | stronger antimicrobial activity than melittin | relatively low compared to that of melittin |  |
| ANLLRHKVYGYCVLGPKGSSLGGIHGTWHDHHCSLIQRNPSTSTKGN [ISGCock_Contig13_3006, synthetic peptide, AMPA stretch of a predicted novel AMP from a P. americana transcript] | antimicrobial activity | 64 µg/mL | >64 µg/mL | 64 µg/mL |  |  |  |  |  |
| VVGRKHSILNCIPYLKKKKIMRLVESESIG [ISGCock_Contig12_4176, synthetic peptide, AMPA stretch of a predicted novel AMP from a P. americana transcript] | antimicrobial activity | 8 µg/mL | >64 µg/mL | 8 µg/mL | greater than that of melittin | strong antimicrobial activity |  | relatively low compared to that of melittin |  |
